{
  "source": "patent US20170065667A1",
  "about": "“METHODS FOR SYNCHRONIZATION OF ESTROUS CYCLES AND OVULATION FOR FIXED TIME ARTIFICIAL INSEMINATION IN CATTLE” (Parnell Technologies Pty Ltd., priority 2014, published 2017)",
  "test_system": "lactating Holstein cows",
  "assay": "Experiment 1: pregnancies per AI (P/AI) after one vs. two cloprostenol sodium injections in Double-Ovsynch, FTAI",
  "assay_type": "in vivo, cattle",
  "conditions": "for P/AI: quartiles 2, 3 and 4 combined",
  "description": "An experiment was conducted to determine the effectiveness of the exogenous administration of hormones for synchronizing the estrous cycles of lactating dairy cattle and resulting pregnancy rates subsequent to FTAI. A total of 373 lactating Holstein cows (172 primiparous, 201 multiparous) were synchronized with a Double-Ovsynch program comprising a first or presynchronization Ovsynch phase followed by a second Ovsynch phase. All animals were synchronized using a GnRH composition (about 100 mcg of gonadorelin acetate per mL, GONAbreed®, Parnell Technologies Pty Ltd, Alexandria, Australia) and a PGF2α analog composition (about 250 mcg of cloprostenol sodium per mL, estroPLAN®, Parnell Technologies Pty Ltd, Alexandria, Australia). The first Ovsynch phase began at about 51 to about 57 days in milk where the cows received a first 1 mL intramuscular injection of a gonadorelin acetate composition. At about 58 to about 64 days in milk, the cows received a first 2 mL intramuscular injection of a cloprostenol sodium composition. At about 61 to about 67 days in milk, the cows received a second 1 mL intramuscular injection of a gonadorelin acetate composition concluding the first Ovsynch phase. The animals were then synchronized with a second Ovsynch phase comprising an Ovsynch-56 protocol beginning at about 68 to about 74 days in milk where the cows received a third 1 mL intramuscular injection of gonadorelin acetate composition. At about 75 to about 81 days in milk, the animals received a second 2 mL intramuscular injection of a cloprostenol sodium composition. At about 77 to about 83 days in milk (about 56 hours after the second injection of a cloprostenol sodium composition), the animals received a fourth 1 mL intramuscular injection of a gonadorelin acetate composition. And at about 78 to about 84 days in milk (about 16 hours after the fourth injection of the gonadorelin acetate composition), the animals receive AI, concluding the second Ovsynch phase. […] The experimental protocol is shown in the diagram of FIG. 2. Statistical analyses were performed with SAS (SAS Institute, 2006). Variables with a binomial distribution, such as P/AI and percentage of animals with CL regression, were analyzed by logistic regression using the LOGISTIC procedure. One-tailed comparisons were utilized throughout the study for comparison of the effect of an additional cloprostenol sodium injection on CL regression and animals pregnant to the FTAI. Continuous variables were analyzed using ANOVA with logistic regression utilized to compare the relationship between circulating P4 and the binomial traits. Animals with ≦2.0 ng/mL P4 on day of PGF were removed from the analysis (n=29; 13 primiparous, 16 multiparous) due to lack of synchronization to the double Ovsynch protocol. Therefore, all analyses were done with a total of 344 lactating dairy cows (n=159 primiparous; n=185 multiparous). Statistical differences were considered significant for P≦0.05 and as a tendency for P≦0.15.",
  "note": "Where “and” joins values, the source holds several entries; their conditions need not be identical. Equal values may be shown once.",
  "data": [
    {"compound": "O=C(O)CCC/C=C\\CC1C(O)CC(O)C1/C=C/C(O)COc1cccc(Cl)c1", "note": "(stereo not shown) [cloprostenol sodium]", "values": [
      {"measurement": "Effect of PGF, relative difference in P/AI (two minus one, divided by one)", "setting": "multiparous", "value": "18.9% (P = 0.15)"},
      {"measurement": "Pregnant/AI, % (n/n)", "setting": "one injection, Quartile 1, [P4] 2.0-4.8 at first injection", "value": "31.0% and 31.0 (13/42) %"},
      {"measurement": "Pregnant/AI, % (n/n)", "setting": "one injection, Quartile 2, [P4] 4.9-6.7", "value": "40.0% and 40.0 (18/45) %"},
      {"measurement": "Pregnant/AI, % (n/n)", "setting": "one injection, Quartile 3, [P4] 6.8-8.7", "value": "47.7% and 47.7 (21/44) %"},
      {"measurement": "Pregnant/AI, % (n/n)", "setting": "one injection, Quartile 4, [P4] 8.8-12", "value": "44.4% and 44.4 (20/45) %"},
      {"measurement": "percentage of cows pregnant/AI (P/AI)", "setting": "one injection, multiparous", "value": "37.5% (36/96)"},
      {"measurement": "percentage of cows pregnant/AI (P/AI)", "setting": "one injection, overall", "value": "40.1% (72/176)"},
      {"measurement": "percentage of cows pregnant/AI (P/AI)", "setting": "one injection, primiparous", "value": "45.0% (36/80)"},
      {"measurement": "P/AI", "setting": "one injection", "value": 44.0, "unit": "%"},
      {"measurement": "Effect of PGF, relative difference in P/AI (two minus one, divided by one)", "setting": "overall", "value": "15.2% (P = 0.13)"},
      {"measurement": "Effect of PGF, relative difference in P/AI (two minus one, divided by one)", "setting": "primiparous", "value": "7.11% (P = 0.35)"},
      {"measurement": "Pregnant/AI, % (n/n)", "setting": "two injections, Quartile 1, [P4] 2.0-5.4 at first injection", "value": "31.7% and 31.7 (13/41) %"},
      {"measurement": "Pregnant/AI, % (n/n)", "setting": "two injections, Quartile 2, [P4] 5.5-7.0", "value": "46.7% and 46.7 (21/45) %"},
      {"measurement": "Pregnant/AI, % (n/n)", "setting": "two injections, Quartile 3, [P4] 7.1-8.6", "value": "55.8% and 55.8 (24/43) %"},
      {"measurement": "Pregnant/AI, % (n/n)", "setting": "two injections, Quartile 4, [P4] 8.7-12", "value": "56.4% and 56.4 (22/39) %"},
      {"measurement": "percentage of cows pregnant/AI (P/AI)", "setting": "two injections, multiparous", "value": "44.6% (41/89)"},
      {"measurement": "percentage of cows pregnant/AI (P/AI)", "setting": "two injections, overall", "value": "46.2% (80/168)"},
      {"measurement": "percentage of cows pregnant/AI (P/AI)", "setting": "two injections, primiparous", "value": "48.2% (39/79)"},
      {"measurement": "P/AI", "setting": "two injections", "value": 52.8, "unit": "%"}
    ]}
  ]
}
